The NIST ThermoML archive (doi:10.1021/acs.jced.9b00752)
Where “and” joins values, the source holds several entries; their conditions need not be identical. Identical values can stand only once.

Assay: mn = molality of the nth substance listed, in mol/kg
Details: 100 kPa, Liquid, Vibrating tube method

N[C@@H](Cc1ccc(O)cc1)C(=O)O [3-(p-hydroxyphenyl)-L-alanine] + O
mass density
Details | 273.65 K | 274.15 K | 274.65 K | 275.15 K | 275.65 K | 276.15 K | 276.65 K | 277.15 K | 277.65 K | 278.15 K
m1 = 0.0005 | 999.883 kg/m3 | 999.909 kg/m3 | 999.932 kg/m3 | 999.95 kg/m3 | 999.963 kg/m3 | 999.972 kg/m3 | 999.98 kg/m3 | 999.979 kg/m3 | 999.978 kg/m3 | 999.972 kg/m3
m1 = 0.001 | 999.917 kg/m3 | 999.942 kg/m3 | 999.965 kg/m3 | 999.984 kg/m3 | 999.997 kg/m3 | 1000 kg/m3 | 1000.01 kg/m3 | 1000.01 kg/m3 | 1000.01 kg/m3 | 1000 kg/m3
m1 = 0.0011 | 999.943 kg/m3 | 999.97 kg/m3 | 999.993 kg/m3 | 1000.01 kg/m3 | 1000.02 kg/m3 | 1000.03 kg/m3 | 1000.04 kg/m3 | 1000.04 kg/m3 | 1000.04 kg/m3 | 1000.03 kg/m3
m1 = 0.0022 | 1000.01 kg/m3 | 1000.04 kg/m3 | 1000.06 kg/m3 | 1000.08 kg/m3 | 1000.09 kg/m3 | 1000.1 kg/m3 | 1000.11 kg/m3 | 1000.11 kg/m3 | 1000.11 kg/m3 | 1000.1 kg/m3
m1 = 0.0026 | 1000.03 kg/m3 | 1000.06 kg/m3 | 1000.08 kg/m3 | 1000.1 kg/m3 | 1000.11 kg/m3 | 1000.12 kg/m3 | 1000.13 kg/m3 | 1000.13 kg/m3 | 1000.13 kg/m3 | 1000.12 kg/m3
m1 = 0.0035 | 1000.1 kg/m3 | 1000.13 kg/m3 | 1000.15 kg/m3 | 1000.17 kg/m3 | 1000.18 kg/m3 | 1000.19 kg/m3 | 1000.19 kg/m3 | 1000.2 kg/m3 | 1000.19 kg/m3 | 1000.19 kg/m3
m1 = 0.0036 | 1000.1 kg/m3 | 1000.13 kg/m3 | 1000.15 kg/m3 | 1000.17 kg/m3 | 1000.18 kg/m3 | 1000.19 kg/m3 | 1000.2 kg/m3 | 1000.2 kg/m3 | 1000.19 kg/m3 | 1000.19 kg/m3
m1 = 0.0038 | 1000.11 kg/m3 | 1000.13 kg/m3 | 1000.15 kg/m3 | 1000.17 kg/m3 | 1000.18 kg/m3 | 1000.19 kg/m3 | 1000.2 kg/m3 | 1000.2 kg/m3 | 1000.2 kg/m3 | 1000.19 kg/m3
m1 = 0.0045 | 1000.16 kg/m3 and 1000.17 kg/m3 | 1000.18 kg/m3 and 1000.2 kg/m3 | 1000.21 kg/m3 and 1000.22 kg/m3 | 1000.23 kg/m3 and 1000.24 kg/m3 | 1000.24 kg/m3 and 1000.25 kg/m3 | 1000.25 kg/m3 | 1000.25 kg/m3 and 1000.26 kg/m3 | 1000.25 kg/m3 and 1000.26 kg/m3 | 1000.25 kg/m3 and 1000.26 kg/m3 | 1000.24 kg/m3 and 1000.25 kg/m3
m1 = 0.0047 | 1000.16 kg/m3 | 1000.19 kg/m3 | 1000.21 kg/m3 | 1000.23 kg/m3 | 1000.24 kg/m3 | 1000.25 kg/m3 | 1000.26 kg/m3 | 1000.26 kg/m3 | 1000.25 kg/m3 | 1000.25 kg/m3
m1 = 0.0053 | 1000.21 kg/m3 and 1000.22 kg/m3 | 1000.23 kg/m3 and 1000.25 kg/m3 | 1000.26 kg/m3 and 1000.27 kg/m3 | 1000.27 kg/m3 and 1000.28 kg/m3 | 1000.29 kg/m3 and 1000.3 kg/m3 | 1000.29 kg/m3 and 1000.31 kg/m3 | 1000.3 kg/m3 and 1000.31 kg/m3 | 1000.3 kg/m3 and 1000.31 kg/m3 | 1000.3 kg/m3 and 1000.31 kg/m3 | 1000.29 kg/m3 and 1000.3 kg/m3
m1 = 0.0055 | 1000.21 kg/m3 | 1000.23 kg/m3 | 1000.25 kg/m3 | 1000.27 kg/m3 | 1000.29 kg/m3 | 1000.29 kg/m3 | 1000.3 kg/m3 | 1000.3 kg/m3 | 1000.3 kg/m3 | 1000.29 kg/m3
